The values below come from paper PMC3433560 (Bioorganic & medicinal chemistry letters, 2012).

The structures appear in SMILES notation. pEC50: −log10 of the molar value.

The target in this assay is KCNQ1 channels (Homo sapiens, UniProt P51787). Put plainly: cell-based.
Chain of KCNQ1 channels (P51787 whole entry): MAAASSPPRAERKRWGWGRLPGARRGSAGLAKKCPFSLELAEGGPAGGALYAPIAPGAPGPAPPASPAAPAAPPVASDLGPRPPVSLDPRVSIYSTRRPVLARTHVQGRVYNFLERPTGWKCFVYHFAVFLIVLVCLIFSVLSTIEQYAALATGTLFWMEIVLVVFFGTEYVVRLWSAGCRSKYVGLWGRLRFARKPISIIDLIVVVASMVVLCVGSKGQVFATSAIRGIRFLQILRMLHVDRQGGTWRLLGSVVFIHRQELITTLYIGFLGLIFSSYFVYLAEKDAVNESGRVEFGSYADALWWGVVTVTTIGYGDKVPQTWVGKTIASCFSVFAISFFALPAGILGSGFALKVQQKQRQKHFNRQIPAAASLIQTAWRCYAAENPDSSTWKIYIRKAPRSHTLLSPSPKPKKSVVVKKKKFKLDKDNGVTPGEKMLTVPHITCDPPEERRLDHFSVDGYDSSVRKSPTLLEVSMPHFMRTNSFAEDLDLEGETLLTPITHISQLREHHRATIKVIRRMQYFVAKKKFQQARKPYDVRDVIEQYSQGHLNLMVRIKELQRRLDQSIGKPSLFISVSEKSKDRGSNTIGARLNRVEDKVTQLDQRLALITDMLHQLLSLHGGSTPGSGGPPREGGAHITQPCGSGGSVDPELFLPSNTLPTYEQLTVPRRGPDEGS

By pEC50 is commonly meant the EC50 on a negative log10 scale, so that one unit is a factor of ten. The low end stands for a high EC50, the high end for a low EC50. As for `COc1ccc(-c2csc(NC(=O)C3CCCCN3S(=O)(=O)c3ccccc3)n2)cc1` (stereo not shown) [compound 5], the pEC50 was 6.18.
